Values of other authors, collected in patent US7601757B2, “Lipid system and methods of use” (Abbott Laboratories, priority 2003, dated 2009).

What was measured:
[1] = system: obese individuals with markers of insulin resistance; details: diets rich in alpha-linolenic acid as margarine and muffins made with flaxseed oil
[2] = system: genetically insulin-resistant diabetic mice (KK-Ay); details: 21 days after daily administration by gavage

CC/C=C\C/C=C\C/C=C\CCCCCCCC(=O)O [alpha-linolenic acid]
Insulin sensitivity [1]: decreased
Blood glucose response to insulin [2]: significant improvement
